Reference: patent US9969687B2, “Compounds useful as CCR9 modulators” (Norgine B.V., priority 2013, dated 2018)
pKi: −log10 of the molar value.

What was measured:
CCR9 [1] = biological target: T1, CCR9 (Homo sapiens (Human), UniProt P51686); assay: FLIPR calcium flux assay using MOLT4 cells, TECK stimulation; format: cell-based; conditions: MOLT4 cells (human T-cell line)
Summary of the method: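 MOLT4 cells in HBSS/20 mM HEPES with probenecid, Fluo-4 NW loaded, preincubated with compound (10 μM-0.1 nM final, half-log) for 60 min before TECK stimulation. Calcium rise read on FLIPR; IC50 from four-parameter fit, converted to Ki using TECK concentration and same-day TECK EC50.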

CCR9 [2] = biological target: T1, CCR9; assay: FLIPR calcium flux assay using hCCR9 over expressed cells (Chem1-hCCR9), TECK stimulation; format: cell-based; conditions: Chem1-hCCR9 overexpressing cells
Method: Biological Activity: FLIPR Assay Using hCCR9 Over Expressed Cells
A calcium flux assay was used to determine the ability of the compounds to interfere with the binding between CCR9 and its chemokine ligand (TECK) in Chem1-hCCR9 overexpressing cells. hCCR9 overexpressing cells were seeded (25,000 cells/well) into black Poly-D-Lysine coated clear bottom 96-well plates (BD Biosciences, Cat #356640) and incubated overnight at 37° C./5% CO2 in a humidified incubator. Media was aspirated and cells washed twice with 100 μL assay buffer (1×HBSS, 20 mM HEPES) containing 2.5 mM Probenecid. A 0.3× Fluo-4 NW calcium dye was prepared in assay buffer containing 5 mM Probenecid and stored in the dark. Each well was loaded with 100 μL of 0.3× Fluo-4 NW calcium dye and incubated at 37° C./5% CO2 for 60 minutes and then at room temperature for 30 minutes. A half-log serially diluted concentration response curve was prepared at a 3× final assay concentration for each compound (10 μM-0.1 nM final assay concentration) and 50 μL of the compound then transferred to the cells (150 μL final volume) for 60 minutes prior to stimulation (30 minutes at 37° C./5% CO2 and 30 minutes at room temperature). TECK was diluted to 4× its EC80 in assay buffer (containing 0.1% [w/v] bovine serum albumin [BSA]) and 50 μL dispensed through the fluorometric imaging plate reader (FLIPR) instrument to stimulate the cells (200 μL final volume). The increase in intracellular calcium levels was measured with the FLIPR instrument. The potency of the compound as a CCR9 antagonist was calculated as an IC50 using GraphPad Prism software (variable slope four parameter). The Ki of the compound was determined from the IC50 values using the following equation. IC50/1+(Agonist (TECK) conc. used in assay/EC50 of agonist (TECK) generated on day of experiment) Ki calculation: […]

T1 sequence (P51686 whole entry): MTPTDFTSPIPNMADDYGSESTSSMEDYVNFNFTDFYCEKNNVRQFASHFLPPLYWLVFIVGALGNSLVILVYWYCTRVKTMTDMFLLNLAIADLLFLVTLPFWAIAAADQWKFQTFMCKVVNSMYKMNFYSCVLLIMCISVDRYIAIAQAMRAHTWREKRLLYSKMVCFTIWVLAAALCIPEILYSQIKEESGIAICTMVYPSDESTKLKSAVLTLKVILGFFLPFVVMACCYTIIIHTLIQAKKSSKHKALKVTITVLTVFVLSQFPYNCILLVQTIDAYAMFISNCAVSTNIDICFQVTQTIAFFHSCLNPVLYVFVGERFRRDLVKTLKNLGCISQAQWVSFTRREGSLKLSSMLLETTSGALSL

Row | pKi (CCR9 [1]) | pKi (CCR9 [2]) | Compound
1 | 7.74 | 7.25 | COc1cncc(N2C(=O)c3c(Cl)ccc(NS(=O)(=O)c4ccc(C(C)(C)C)cc4)c3C2=O)c1C [Compound 242]
2 | 8.22 | 8.52 | Cc1cnccc1N1C(=O)c2c(Cl)ccc(NS(=O)(=O)c3ccc(C(C)(C)C)cc3)c2C1=O [Compound 244]
3 | 7.33 | 7.27 | COc1c[n+]([O-])cc(N2C(=O)c3c(Cl)ccc(NS(=O)(=O)c4ccc(C(C)(C)C)cc4)c3C2=O)c1C [Compound 245]
4 | 7.77 | 7.14 | Cn1cnc(N2C(=O)c3c(Cl)ccc(NS(=O)(=O)c4ccc(C(C)(C)C)cc4)c3C2=O)n1 [Compound 255]
5 | 7.60 | 7.68 | CCc1c(OC)cncc1N1C(=O)c2c(Cl)ccc(NS(=O)(=O)c3ccc(C(C)(C)C)cc3)c2C1=O [Compound 257]
6 | 7.80 | 7.66 | COc1ccc(N2C(=O)c3c(Cl)ccc(NS(=O)(=O)c4ccc(C(C)(C)C)cc4)c3C2=O)nc1C [Compound 260]
7 | 7.80 | 7.96 | COc1ncc(C)cc1N1C(=O)c2c(Cl)ccc(NS(=O)(=O)c3ccc(C(C)(C)C)cc3)c2C1=O [Compound 261]
8 | 7.96 | 7.60 | Cc1cnc(C)c(N2C(=O)c3c(Cl)ccc(NS(=O)(=O)c4ccc(C(C)(C)C)cc4)c3C2=O)c1 [Compound 263]
9 | 7.96 | 7.74 | CC(C)(C)c1ccc(S(=O)(=O)Nc2ccc(Cl)c3c2C(=O)N(c2ccncc2)C3=O)cc1 [Compound 264]
10 | 7.57 | 7.23 | Cc1cc(N2C(=O)c3c(Cl)ccc(NS(=O)(=O)c4ccc(C(C)(C)C)cc4)c3C2=O)c(C)[n+]([O-])c1 [Compound 267]
11 | 7.64 | 7.21 | Cc1nccnc1N1C(=O)c2c(Cl)ccc(NS(=O)(=O)c3ccc(C(C)(C)C)cc3)c2C1=O [Compound 270]
12 | 8.05 | 7.54 | Cc1c[n+]([O-])ccc1N1C(=O)c2c(Cl)ccc(NS(=O)(=O)c3ccc(C(C)(C)C)cc3)c2C1=O [Compound 272]
13 | 7.49 | 7.27 | Cc1cnc(N2C(=O)c3c(Cl)ccc(NS(=O)(=O)c4ccc(C(C)(C)C)cc4)c3C2=O)cn1 [Compound 275]
14 | 7.66 | 7.04 | CC(C)(C)c1ccc(S(=O)(=O)Nc2ccc(Cl)c3c2C(=O)N(c2cc(F)ccn2)C3=O)cc1 [Compound 276]
15 | 8.30 | 8.40 | CC(C)(C)c1ccc(S(=O)(=O)Nc2ccc(Cl)c3c2C(=O)N(c2ccc[nH]c2=O)C3=O)cc1 [Compound 281, 4-(tert-butyl)-N-(7-chloro-1,3-dioxo-2-(2-oxo-1,2-dihydropyridin-3-yl)isoindolin-4-yl)benzenesulfonamide]
16 | 8.05 | 7.64 | Cn1cc(N2C(=O)c3c(Cl)ccc(NS(=O)(=O)c4ccc(C(C)(C)C)cc4)c3C2=O)ccc1=O [Compound 282]
17 | 7.80 | 7.11 | Cc1cc(N2C(=O)c3c(Cl)ccc(NS(=O)(=O)c4ccc(C(C)(C)C)cc4)c3C2=O)cn(C)c1=O [Compound 285]
18 | 8.00 | 7.85 | CCOC(=O)c1ncccc1N1C(=O)c2c(Cl)ccc(NS(=O)(=O)c3ccc(C(C)(C)C)cc3)c2C1=O [Compound 286, ethyl 3-(4-((4-(tert-butyl)phenyl)sulfonamido)-7-chloro-1,3-dioxoisoindolin-2-yl)picolinate]
19 | 7.66 | 8.00 | CC(C)(C)c1ccc(S(=O)(=O)Nc2ccc(Cl)c3c2C(=O)N(c2cccnc2C(=O)O)C3=O)cc1 [Compound 287, 3-(4-((4-(tert-butyl)phenyl)sulfonamido)-7-chloro-1,3-dioxoisoindolin-2-yl)picolinic acid]
20 | 8.52 | 7.64 | CC(C)(C)c1ccc(S(=O)(=O)Nc2ccc(Cl)c3c2C(=O)N(c2ccsc2C(=O)O)C3=O)cc1 [Compound 288]
21 | 8.15 | 7.85 | CCOC(=O)c1c(N2C(=O)c3c(Cl)ccc(NS(=O)(=O)c4ccc(C(C)(C)C)cc4)c3C2=O)ccc[n+]1[O-] [Compound 290]
22 | 8.30 | 7.82 | COC(=O)c1cc(N2C(=O)c3c(Cl)ccc(NS(=O)(=O)c4ccc(C(C)(C)C)cc4)c3C2=O)n(C)n1 [Compound 291]
23 | 7.96 | 7.80 | COC(=O)c1cc(N2C(=O)c3c(Cl)ccc(NS(=O)(=O)c4ccc(C(C)(C)C)cc4)c3C2=O)nn1C [Compound 292]

The remaining lines, values behind:

Row | Compound | pKi (CCR9 [1]) | pKi (CCR9 [2])
24 | CC(C)(C)c1ccc(S(=O)(=O)Nc2ccc(Cl)c3c2C(=O)N(Cc2c(F)ccc[n+]2[O-])C3=O)cc1 [Compound 241] | 8.30 | 8.15
25 | COc1ccc(N2C(=O)c3c(Cl)ccc(NS(=O)(=O)c4ccc(C(C)(C)C)cc4)c3C2=O)c(C)[n+]1[O-] [Compound 243] | 7.47 | 6.94
26 | COc1ncccc1CN1C(=O)c2c(Cl)ccc(NS(=O)(=O)c3ccc(C(C)(C)C)cc3)c2C1=O [Compound 247] | 7.11 | 7.29
27 | CC(C)(C)c1ccc(S(=O)(=O)Nc2ccc(Cl)c3c2C(=O)N(c2ccncn2)C3=O)cc1 [Compound 249] | 7.48 | 7.22
28 | CC(C)(C)c1ccc(S(=O)(=O)Nc2ccc(Cl)c3c2C(=O)N(c2ncccn2)C3=O)cc1 [Compound 250] | 7.64 | 7.25
29 | Cc1ccc(CN2C(=O)c3c(Cl)ccc(NS(=O)(=O)c4ccc(C(C)(C)C)cc4)c3C2=O)nc1 [Compound 251] | 7.29 | 6.83
30 | Cc1cccc(CN2C(=O)c3c(Cl)ccc(NS(=O)(=O)c4ccc(C(C)(C)C)cc4)c3C2=O)n1 [Compound 254] | 7.24 | 7.17
31 | Cc1cnc(C#N)c(N2C(=O)c3c(Cl)ccc(NS(=O)(=O)c4ccc(C(C)(C)C)cc4)c3C2=O)c1 [Compound 256] | 7.74 | 7.74
32 | Cc1cncc(CN2C(=O)c3c(Cl)ccc(NS(=O)(=O)c4ccc(C(C)(C)C)cc4)c3C2=O)c1 [Compound 258] | 7.64 | 7.17
33 | Cc1ccc(CN2C(=O)c3c(Cl)ccc(NS(=O)(=O)c4ccc(C(C)(C)C)cc4)c3C2=O)[n+]([O-])c1 [Compound 259] | 7.89 | 7.35
34 | Cc1cc(CN2C(=O)c3c(Cl)ccc(NS(=O)(=O)c4ccc(C(C)(C)C)cc4)c3C2=O)c[n+]([O-])c1 [Compound 262] | 7.34 | 6.92
35 | CCc1c(OC)c[n+]([O-])cc1N1C(=O)c2c(Cl)ccc(NS(=O)(=O)c3ccc(C(C)(C)C)cc3)c2C1=O [Compound 266] | 8.00 | 7.60
36 | CCOc1ccncc1N1C(=O)c2c(Cl)ccc(NS(=O)(=O)c3ccc(C(C)(C)C)cc3)c2C1=O [Compound 271] | 8.05 | 7.46
37 | CC(C)(C)c1ccc(S(=O)(=O)Nc2ccc(Cl)c3c2C(=O)N(c2cccc[n+]2[O-])C3=O)cc1 [Compound 274] | 7.47 | 7.30
38 | COc1cncc(N2C(=O)c3c(C#N)ccc(NS(=O)(=O)c4ccc(C(C)(C)C)cc4)c3C2=O)c1 [Compound 278] | 8.00 | 7.77
39 | CC(C)(C)c1ccc(S(=O)(=O)Nc2ccc(C#N)c3c2C(=O)N(Cc2ccccn2)C3=O)cc1 [Compound 279] | 7.74 | 7.77
40 | Cc1cc(C)c(CN2C(=O)c3c(Cl)ccc(NS(=O)(=O)c4ccc(C(C)(C)C)cc4)c3C2=O)c(=O)[nH]1 [Compound 283] | 7.82 | 7.70
41 | CC(C)(C)c1ccc(S(=O)(=O)Nc2ccc(Cl)c3c2C(=O)N(Cc2ccc[nH]c2=O)C3=O)cc1 [Compound 284] | 8.15 | 7.92
